Values after ≈ are worked out from the molar mass of the structure shown.
tested on: Enterococcus faecalis ATCC 29212; assay: MIC against Enterococcus faecalis ATCC 29212; assay type: cell-based; details: ATCC29212; Enterococcus faecalis ATCC 29212; read-out: MICs against Enterococcus faecalis, Activity
Method: Institute. Methods for Dilution Antimicrobial Susceptibility Tests for Bacteria That Grow Aerobically; Approved Standard—Seventh Edition. Document M7-A7. CLSI, Wayne, Pa., 2006; Clinical Laboratories and Standards Institute. Methods for Antimicrobial Susceptibility Testing of Anaerobic Bacteria; Approved Standard—Sixth Edition. Document M11-A6. CLSI, Wayne, Pa., 2004).
Compounds of this invention were tested for antimicrobial activity by susceptibility testing in liquid or on solid media. MICs for compounds against each strain were determined by the broth microdilution or agar dilution method according to the guidelines of the Clinical Laboratories and Standards Institute, formerly the National Committee for Clinical Laboratory Standards (Clinical Laboratories and Standards Institute. Methods for Dilution Antimicrobial Susceptibility Tests for Bacteria That Grow Aerobically; Approved Standard—Seventh Edition. Document M7-A7. CLSI, Wayne, Pa., 2006; Clinical Laboratories and Standards Institute. Methods for Antimicrobial Susceptibility Testing of Anaerobic Bacteria; Approved Standard—Sixth Edition. Document M11-A6. CLSI, Wayne, Pa., 2004).

| SMILES | MIC |
| --- | --- |
| CCNC(=O)Nc1nc2cc(-c3cccnc3)cc(C(=O)NN)c2s1 [Example 153, 1-Ethyl-3-(7-hydrazinocarbonyl-5-pyridin-3-yl-benzothiazol-2-yl)-urea] | 2 to 16 µg/mL (≈ 5.61 to 44.9 µM) |
| CCNC(=O)Nc1nc2cc(Br)cc(-c3cccnc3)c2s1 [Example 2, 1-(5-Bromo-7-pyridin-3-yl-benzothiazol-2-yl)-3-ethyl-urea] | 2 to 16 µg/mL (≈ 5.3 to 42.4 µM) |
| CCNC(=O)Nc1nc2cc(-c3cccnc3)cc(-c3nccn3C)c2s1 [Example 162, 1-Ethyl-3-[7-(1-methyl-1H-imidazol-2-yl)-5-pyridin-3-yl-benzothiazol-2-yl]-urea] | 2 to 16 µg/mL (≈ 5.28 to 42.3 µM) |
| CCNC(=O)Nc1nc2cc(-c3cnc(N)nc3)cc(-c3cnc(N)nc3)c2s1 [Example 145, 1-[5,7-Bis-(2-amino-pyrimidin-5-yl)-benzothiazol-2-yl]-3-ethyl-urea] | 2 to 16 µg/mL (≈ 4.91 to 39.3 µM) |
| CCNC(=O)Nc1nc2cc(-c3cccnc3)cc(-n3cccn3)c2s1 [Example 140, 1-Ethyl-3-(7-pyrazol-1-yl-5-pyridin-3-yl-benzothiazol-2-yl)-urea] | 0.25 to 1 µg/mL (≈ 0.686 to 2.74 µM) |
| CCNC(=O)Nc1nc2cc(-c3cccnc3)cc(-c3cc(N(C)C)ccn3)c2s1 [Example 169, 1-[7-(4-Dimethylamino-pyridin-2-yl)-5-pyridin-3-yl-benzothiazol-2-yl]-3-ethyl-urea] | 0.25 to 1 µg/mL (≈ 0.597 to 2.39 µM) |
| CCNC(=O)Nc1nc2cc(-c3cccnc3)cc(-c3ccc(OC)cc3)c2s1 [Example 84, 1-Ethyl-3-[7-(4-methoxy-phenyl)-5-pyridin-3-yl-benzothiazol-2-yl]-urea] | 0.25 to 1 µg/mL (≈ 0.618 to 2.47 µM) |
| CCNC(=O)Nc1nc2cc(-c3cccnc3)cc(-c3ncccc3CO)c2s1 [Example 109, 1-Ethyl-3-[7-(3-hydroxymethyl-pyridin-2-yl)-5-pyridin-3-yl-benzothiazol-2-yl]-urea] | 2 to 16 µg/mL (≈ 4.93 to 39.5 µM) |
| CCNC(=O)Nc1nc2cc(-c3ccccn3)cc(-c3cccnc3)c2s1 [Example 155, 1-Ethyl-3-(5-pyridin-2-yl-7-pyridin-3-yl-benzothiazol-2-yl)-urea] | 2 to 16 µg/mL (≈ 5.33 to 42.6 µM) |
| CCNC(=O)Nc1nc2cc(-c3cccnc3)cc(-c3ccccc3)c2s1 [Example 78, 1-Ethyl-3-(7-phenyl-5-pyridin-3-yl-benzothiazol-2-yl)-urea] | 0.25 to 1 µg/mL (≈ 0.668 to 2.67 µM) |
| CCNC(=O)Nc1nc2cc(-c3cccnc3)cc(-c3cccc(N(C)C)n3)c2s1 [Example 168, 1-[7-(6-Dimethylamino-pyridin-2-yl)-5-pyridin-3-yl-benzothiazol-2-yl]-3-ethyl-urea] | 0.25 to 1 µg/mL (≈ 0.597 to 2.39 µM) |
| CCNC(=O)Nc1nc2cc(I)cc(-c3cccnc3)c2s1 [Example 8, 1-Ethyl-3-(5-iodo-7-pyridin-3-yl-benzothiazol-2-yl)-urea] | 2 to 16 µg/mL (≈ 4.71 to 37.7 µM) |
| CCNC(=O)Nc1nc2cc(-c3ccc(N(C)C)nc3)cc(-c3ccccn3)c2s1 [Example 38, 1-[5-(6-Dimethylamino-pyridin-3-yl)-7-pyridin-2-yl-benzothiazol-2-yl]-3-ethyl-urea] | 0.25 to 1 µg/mL (≈ 0.597 to 2.39 µM) |
| CCNC(=O)Nc1nc2cc(-c3cccnc3)cc(-c3cccc(O)n3)c2s1 [Example 173, 1-Ethyl-3-[7-(6-hydroxy-pyridin-2-yl)-5-pyridin-3-yl-benzothiazol-2-yl]-urea] | 2 to 16 µg/mL (≈ 5.11 to 40.9 µM) |
| CCNC(=O)Nc1nc2cc(-c3cccnc3)cc(-c3csc(OC)n3)c2s1 [Example 157, 1-Ethyl-3-[7-(2-methoxy-thiazol-4-yl)-5-pyridin-3-yl-benzothiazol-2-yl]-urea] | 0.25 to 1 µg/mL (≈ 0.608 to 2.43 µM) |
| CCNC(=O)Nc1nc2cc(-c3cccnc3)cc(-c3cscn3)c2s1 [Example 158, 1-Ethyl-3-(5-pyridin-3-yl-7-thiazol-4-yl-benzothiazol-2-yl)-urea] | 0.25 to 1 µg/mL (≈ 0.655 to 2.62 µM) |

More lines, now with the values ahead:

| MIC | SMILES |
| --- | --- |
| 0.25 to 1 µg/mL (≈ 0.581 to 2.32 µM) | CCNC(=O)Nc1nc2cc(-c3cnc4c(c3)CNCC4)cc(-c3ccccn3)c2s1 [Example 65, 1-Ethyl-3-[7-pyridin-2-yl-5-(5,6,7,8-tetrahydro-[1,6]naphthyridin-3-yl)-benzothiazol-2-yl]-urea] |
| 0.25 to 1 µg/mL (≈ 0.47 to 1.88 µM) | CCNC(=O)Nc1nc2cc(-c3cncc(C(=O)NCCN4CCOCC4)c3)cc(-c3ccccn3)c2s1 [Example 68, 5-[2-(3-Ethyl-ureido)-7-pyridin-2-yl-benzothiazol-5-yl]-N-(2-morpholin-4-yl-ethyl)-nicotinamide] |
| < 0.25 µg/mL | CCNC(=O)Nc1nc2cc(-c3cccnc3)cc(-c3ccc(CO)cn3)c2s1 [Example 96, 1-Ethyl-3-[7-(5-hydroxymethyl-pyridin-2-yl)-5-pyridin-3-yl-benzothiazol-2-yl]-urea] |
| 0.25 to 1 µg/mL (≈ 0.61 to 2.44 µM) | CCNC(=O)Nc1nc2cc(-c3cncc(Cl)c3)cc(-c3cccnc3)c2s1 [Example 48, 1-[5-(5-Chloro-pyridin-3-yl)-7-pyridin-3-yl-benzothiazol-2-yl]-3-ethyl-urea] |
| 0.25 to 1 µg/mL (≈ 0.686 to 2.74 µM) | CCNC(=O)Nc1nc2cc(-c3cccnc3)cc(-c3cn[nH]c3)c2s1 [Example 80, 1-Ethyl-3-[7-(1H-pyrazol-4-yl)-5-pyridin-3-yl-benzothiazol-2-yl]-urea] |
| < 0.25 µg/mL | CCNC(=O)Nc1nc2cc(-c3cccnc3)cc(-c3nccc4cc[nH]c34)c2s1 [Example 115, 1-Ethyl-3-[5-pyridin-3-yl-7-(1H-pyrrolo[2,3-c]pyridin-7-yl)-benzothiazol-2-yl]-urea] |
| < 0.25 µg/mL | CCNC(=O)Nc1nc2cc(-c3cccnc3)cc(-c3cc(Cl)ccn3)c2s1 [Example 127, 1-[7-(4-Chloro-pyridin-2-yl)-5-pyridin-3-yl-benzothiazol-2-yl]-3-ethyl-urea] |
| 0.25 to 1 µg/mL (≈ 0.664 to 2.66 µM) | CCNC(=O)Nc1nc2cc(-c3cccnc3)cc(-c3ncccn3)c2s1 [Example 93, 1-Ethyl-3-(5-pyridin-3-yl-7-pyrimidin-2-yl-benzothiazol-2-yl)-urea] |
| < 0.25 µg/mL | CCNC(=O)Nc1nc2cc(-c3ccc(C#N)nc3)cc(-c3ccccn3)c2s1 [Example 33, 1-[5-(6-Cyano-pyridin-3-yl)-7-pyridin-2-yl-benzothiazol-2-yl]-3-ethyl-urea] |
| 0.25 to 1 µg/mL (≈ 0.639 to 2.55 µM) | CCNC(=O)Nc1nc2cc(-c3ccnc(O)c3)cc(-c3ccccn3)c2s1 [Example 56, 1-Ethyl-3-[5-(2-hydroxy-pyridin-4-yl)-7-pyridin-2-yl-benzothiazol-2-yl]-urea] |
| 0.25 to 1 µg/mL (≈ 0.639 to 2.55 µM) | CCNC(=O)Nc1nc2cc(-c3cncc(N)n3)cc(-c3cccnc3)c2s1 [Example 45, 1-[5-(6-Amino-pyrazin-2-yl)-7-pyridin-3-yl-benzothiazol-2-yl]-3-ethyl-urea] |
| 0.25 to 1 µg/mL (≈ 0.639 to 2.55 µM) | CCNC(=O)Nc1nc2cc(-c3cccnc3)cc(-c3cnc(N)nc3)c2s1 [Example 42, 1-[7-(2-Amino-pyrimidin-5-yl)-5-pyridin-3-yl-benzothiazol-2-yl]-3-ethyl-urea] |
| < 0.25 µg/mL | CCNC(=O)Nc1nc2cc(-c3ccc(CO)nc3)cc(-c3ccccn3)c2s1 [Example 34, 1-Ethyl-3-[5-(6-hydroxymethyl-pyridin-3-yl)-7-pyridin-2-yl-benzothiazol-2-yl]-urea] |
| < 0.25 µg/mL | CCNC(=O)Nc1nc2cc(-c3ccc(CC(=O)NC)nc3)cc(-c3ccccn3)c2s1 [Example 70, 2-{5-[2-(3-Ethyl-ureido)-7-pyridin-2-yl-benzothiazol-5-yl]-pyridin-2-yl}-N-methyl-acetamide] |
| < 0.25 µg/mL | CCNC(=O)Nc1nc2cc(-c3cccnc3)cc(-c3ccc(C#N)cn3)c2s1 [Example 107, 1-[7-(5-Cyano-pyridin-2-yl)-5-pyridin-3-yl-benzothiazol-2-yl]-3-ethyl-urea] |
| 0.25 to 1 µg/mL (≈ 0.635 to 2.54 µM) | CCNC(=O)Nc1nc2cc(-c3cccnc3)cc(-c3cccnc3F)c2s1 [Example 76, 1-Ethyl-3-[7-(2-fluoro-pyridin-3-yl)-5-pyridin-3-yl-benzothiazol-2-yl]-urea] |
| 0.25 to 1 µg/mL (≈ 0.615 to 2.46 µM) | CCNC(=O)Nc1nc2cc(-c3cccnc3)cc(-c3ccc(OC)nn3)c2s1 [Example 105, 1-Ethyl-3-[7-(6-methoxy-pyridazin-3-yl)-5-pyridin-3-yl-benzothiazol-2-yl]-urea] |
| < 0.25 µg/mL | CCNC(=O)Nc1nc2cc(-c3cccnc3)cc(-c3nccc(N)n3)c2s1 [Example 110, 1-[7-(4-Amino-pyrimidin-2-yl)-5-pyridin-3-yl-benzothiazol-2-yl]-3-ethyl-urea] |
| < 0.25 µg/mL | CCNC(=O)Nc1nc2cc(-c3cncc(C)c3)cc(-c3ccccn3)c2s1 [Example 36, 1-Ethyl-3-[5-(5-methyl-pyridin-3-yl)-7-pyridin-2-yl-benzothiazol-2-yl]-urea] |
| < 0.25 µg/mL | CCNC(=O)Nc1nc2cc(-c3cccnc3)cc(-c3cncc(N)n3)c2s1 [Example 123, 1-[7-(6-Amino-pyrazin-2-yl)-5-pyridin-3-yl-benzothiazol-2-yl]-3-ethyl-urea] |
| 0.25 to 1 µg/mL (≈ 0.617 to 2.47 µM) | CCNC(=O)Nc1nc2cc(-c3cccnc3)cc(-c3cccnc3OC)c2s1 [Example 85, 1-Ethyl-3-[7-(2-methoxy-pyridin-3-yl)-5-pyridin-3-yl-benzothiazol-2-yl]-urea] |
| 0.25 to 1 µg/mL (≈ 0.559 to 2.23 µM) | CCNC(=O)Nc1nc2cc(-c3ccc(NC(C)=O)nc3)cc(-c3ccc(N)cn3)c2s1 [Example 135, N-{5-[7-(5-Amino-pyridin-2-yl)-2-(3-ethyl-ureido)-benzothiazol-5-yl]-pyridin-2-yl}-acetamide] |
| < 0.25 µg/mL | CCNC(=O)Nc1nc2cc(-c3ccc(NC(C)=O)nc3)cc(-c3ccc(C#N)cn3)c2s1 [Example 136, N-{5-[7-(5-Cyano-pyridin-2-yl)-2-(3-ethyl-ureido)-benzothiazol-5-yl]-pyridin-2-yl}-acetamide] |

same assay, conditions: Enterococcus faecalis, ATCC29212; ATCC 29212; Table 5; read-out: MIC against Enterococcus faecalis (Activity)

| MIC | SMILES |
| --- | --- |
| 0.25 to 1 µg/mL (≈ 0.661 to 2.64 µM) | CCNC(=O)Nc1nc2cc(-c3cnccn3)nc(-c3cnccn3)c2s1 [Example 181, 1-(4,6-di(pyrazin-2-yl)thiazolo[5,4-c]pyridin-2-yl)-3-ethylurea] |
